Experiment [1] relates to Plk1, Cyclin B1 and pHH-3 in HeLa cells. The experiment is described as follows: Western blot of mitotic markers. The class given is cell-based, human. Particulars: synchronized HeLa, indicated concentrations, 16 hrs. The method, then: HeLa cells were collected after trypsinization and lysed with RIPA buffer. Equal amount of proteins (30 μg/lane) were loaded, separated by 15% SDS-PAGE. After blocking with blocking buffer for 2 hrs at RT, the membrane was incubated with the following primary antibodies diluted in blocking buffer overnight at 4°C: anti-hPlk1 mouse monoclonal antibody (Cat# P5998; Sigma; 1:3000), anti-CyclinB1 rabbit polyclonal antibody (Cat# SAB4503501; Sigma; 1:2000), anti-pHH3 rabbit monoclonal antibody (Cat# 04-817; Millipore; 1:2000), anti-GAPDH rabbit polyclonal antibody (Cat# P30008; Abmart; 1:2000). The membrane was washed 3 times and then incubated with Horseradish Peroxidase-conjugated secondary antibodies for 1 hr at RT and visualized with ECL system (Millipore). The level of GAPDH was used as the loading control.
Background: Immunoblotting shows a protein as a band on a membrane.

For experiment [2], the system named is PARP cleavage in HeLa cells. In words: Western blot of PARP cleavage. Type of experiment: cell-based, human. Particulars: 24 hrs. How it is done: We also performed a western blot assay to examine PARP cleavage, and the protocol was similar as describe above. Equal amount of proteins (30 μg/lane) were loaded, separated by 12% SDS-PAGE. Anti-PARP rabbit polyclonal antibody (Cat# 9542P; Cell Signaling Technology; 1:1500) was used as primary antibody. GAPDH was used as the loading control.

The test system of experiment [3] is HeLa cells. In words: Cell cycle analysis by flow cytometry (DNA content). The class given is cell-based, human. Particulars: synchronized HeLa, 10 μM. How it is done:
HeLa cells (1.0×10^5 cells/well) were synchronized at G1/S boundary by double-thymidine block and then released into various media with indicated reagents. For cell cycle analysis, HeLa cells were harvested at different time points, washed twice with PBS, fixed in ice-cold 70% ethanol for 30 min at 4°C, and incubated with 500 μL of Propidium Iodine (Sigma; 10 μg/mL) and RNase A (Sigma; 1 mg/mL) for 30 min at 37°C in the dark prior to flow cytometry analysis (FACScan, BD Biosciences).
Background: In flow cytometry, cells or beads pass a laser one at a time.

In a further experiment the target is T1, Plk3 PBD (Homo sapiens, UniProt Q9H4B4).
T1 construct: (326-603 aa), Plk2 (355-685 aa), and Plk3 (335-646 aa); GST (N); made in house; host or cells: E. coli Rosetta BL21(DE3)
T1 sequence (Q9H4B4 335-646): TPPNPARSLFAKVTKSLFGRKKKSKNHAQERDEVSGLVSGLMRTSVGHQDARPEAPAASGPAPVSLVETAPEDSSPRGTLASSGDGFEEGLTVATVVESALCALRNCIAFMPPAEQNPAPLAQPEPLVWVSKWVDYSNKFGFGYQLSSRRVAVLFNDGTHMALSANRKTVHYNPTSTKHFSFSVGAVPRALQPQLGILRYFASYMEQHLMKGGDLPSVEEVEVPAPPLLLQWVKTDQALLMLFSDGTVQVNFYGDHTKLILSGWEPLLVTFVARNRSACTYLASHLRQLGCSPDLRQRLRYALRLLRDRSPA
In words: Fluorescence polarization assay, Plk3 PBD / FITC-labeled phosphopeptide. Type of experiment: binding. Particulars: Plk3 PBD. The method, then: FP assay was performed as follow. […] We calculated the percentage of inhibition for each sample as follows: Inhibition(%)=Negative−Sample/Negative−Positive×100%
We plotted the inhibition values and determined IC50 using GraphPad Prism5.0. Together with the FITC-labeled peptides used for Plk1 PBD as mentioned above, the following peptides were used for specificity assays, FITC-GPMQTSpTPKNG-OH (Plk2 PBD), FITC-GPLATSpTPKNG-OH (Plk3 PBD).

Experiment [4] concerns HeLa cells. In words: Apoptosis assay, Annexin V/PI dual-staining. The class given is cell-based, human. Particulars: exponentially growing HeLa, various concentrations, 24 hrs, vs DMSO. How it is done: For apoptosis assay, HeLa cells were seeded at 3.0×10^4 cells/well into 6-well plates and incubated overnight. Then exponentially growing HeLa cells were treated with T521 at the indicated concentrations for 24 hrs and Annexin V/PI dual-staining was carried out using a commercial apoptosis assay kit (Beijing 4A Biotech. Co., Ltd.). DMSO-treated cells were taken as control.

The next experiment concerns the target T2, Plk2 PBD (Homo sapiens, UniProt Q9NYY3).
T2 construct: (326-603 aa), Plk2 (355-685 aa), and Plk3 (335-646 aa); GST (N); made in house; host or cells: E. coli Rosetta BL21(DE3)
T2 sequence (Q9NYY3 355-685): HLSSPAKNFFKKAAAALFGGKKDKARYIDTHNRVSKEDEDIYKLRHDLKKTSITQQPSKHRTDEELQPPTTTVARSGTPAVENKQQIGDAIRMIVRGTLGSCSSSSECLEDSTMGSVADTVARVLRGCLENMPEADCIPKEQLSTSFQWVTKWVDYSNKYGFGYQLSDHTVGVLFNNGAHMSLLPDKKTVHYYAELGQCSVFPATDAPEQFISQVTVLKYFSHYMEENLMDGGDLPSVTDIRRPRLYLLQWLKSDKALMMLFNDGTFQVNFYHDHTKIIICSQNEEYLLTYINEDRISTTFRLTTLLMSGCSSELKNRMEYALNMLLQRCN
In words: Fluorescence polarization assay, Plk2 PBD / FITC-labeled phosphopeptide. The class given is binding. How it is done:
FP assay was performed as follow. Briefly, 30 μL Plk1 PBD proteins (400 nM) were incubated with 0.3 μL tested compounds (1 mg/mL) with shaking for 1 hr at room temperature (RT) prior to addition of 30 μL FITC-Poloboxtide (FITC-GPMQSpTPLNG-OH; λex/λem: 485/535 nm; 60 nM) in FP buffer (50 mM Tris-HCl, 10 mM NaCl, 1 mM EDTA pH8.0). Three wells containing 30 μL FITC-Poloboxtide (60 nM) and 30 μL Plk1 PBD (400 nM) were used as negative control (0% inhibition); three wells containing 60 μL FITC-Poloboxtide (30 nM) only were used as positive control (100% inhibition). Fluorescence polarization was analyzed after incubation of FITC-Poloboxtide for 15 min in a 384-well black opaque microplate (Cat# 6007270, PerkinElmer) using Envision Multilabel Reader (PerkinElmer) at 25°C. We calculated the percentage of inhibition for each sample as follows: Inhibition(%)=Negative−Sample/Negative−Positive×100%
We plotted the inhibition values and determined IC50 using GraphPad Prism5.0. Together with the FITC-labeled peptides used for Plk1 PBD as mentioned above, the following peptides were used for specificity assays, FITC-GPMQTSpTPKNG-OH (Plk2 PBD), FITC-GPLATSpTPKNG-OH (Plk3 PBD). As described above for the FP assay, proteins were used at the following final concentrations: Plk1 PBD, 200 nM; Plk2 PBD, 450 nM; Plk3 PBD, 600 nM. All FITC-labeled peptides were chemically synthesized (China Peptides Co., Ltd., Shanghai) and further verified by mass spectrometry, and the purity is more than 95.0%.
(In general: Fluorescence polarisation rises when a labelled molecule tumbles more slowly, as on binding a larger partner.)

[5] abbreviates: FP assay, 1 hr preincubation at RT, read-out: Apparent IC50.
The mark [6] stands for this setting: concentration as high as 500 μM.

For the molecule `CCS(=O)(=O)c1oc(-c2ccc(F)cc2)nc1S(=O)(=O)c1ccccc1` [T521, 5-(ethylsulfonyl)-2-(4-fluorophenyl)-4-(phenylsulfonyl) oxazole], the “mitotic markers (Plk1, Cyclin B1, pHH-3) protein levels” value in experiment [1] was “accumulation of these mitotic markers”. Besides, the PARP cleavage result in experiment [2] is listed as “increase of PARP cleavage”. Moreover, the “cells with 4C DNA content” value in the experiment with HeLa cells [3] (16 hrs after release) is “about 40%”. Further, the “cells remaining in G2/M phase” value with HeLa cells [3] (entire course (24 hrs)) is listed as “At least 20%”. Also, the concentration for half-maximal inhibition (IC50) on Plk3 PBD (setting [5]) and at Plk2 PBD (setting [5]) was more than 500 µM throughout. Also, the “inhibition of binding of PBD to FITC-labeled phosphopeptide” value on Plk3 PBD (setting [6]) and on Plk2 PBD (setting [6]) was “little inhibition” each time. In addition, the “cell population positive for Annexin V staining” value in the experiment with HeLa cells [4] is “increase of cell population positive for Annexin V staining”.

As a reminder, the IC50 is the point on the concentration scale where inhibition reaches its midpoint.

Source of the values: article PMC5352051, “Identification of a novel Polo-like kinase 1 inhibitor that specifically blocks the functions of Polo-Box domain” (Oncotarget, 2016).
